Assay results published in ChEMBL document CHEMBL1201862, “PubChem BioAssay data set” (2004).
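Protocol summary: plate cells (96-well), add compound at 5 concentrations, incubate 48 h, interpolate endpoints linearly. GI50: concentration for 50% inhibition of growth.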 Calls of active or inactive are those of the source. Rule as the data show it: active = GI50 up to about 1.1 µM and inactive = higher.

What was measured:
Test in all cases: NCI tumour cell line growth inhibition, 48 h
786-0 = system: 786-0
A498 = system: A498
A549 = system: A549
ACHN = system: ACHN
BT-549 = system: BT-549
COLO 205 = system: COLO 205
DU-145 = system: DU-145
HCC 2998 = system: HCC 2998
HCT-116 = system: HCT-116
HCT-15 = system: HCT-15
HOP-62 = system: HOP-62
HOP-92 = system: HOP-92
HT-29 = system: HT-29
Hs-578T = system: Hs-578T
IGROV-1 = system: IGROV-1
K562 = system: K562
LOX IMVI = system: LOX IMVI
M14 = system: M14
MCF7 = system: MCF7
MDA-MB-231 = system: MDA-MB-231
MDA-MB-435 = system: MDA-MB-435
MOLT-4 = system: MOLT-4
Malme-3M = system: Malme-3M
NCI-H226 = system: NCI-H226
NCI-H23 = system: NCI-H23
NCI-H460 = system: NCI-H460
NCI/ADR-RES = system: NCI/ADR-RES
OVCAR-3 = system: OVCAR-3
OVCAR-4 = system: OVCAR-4
OVCAR-5 = system: OVCAR-5
OVCAR-8 = system: OVCAR-8
PC-3 = system: PC-3
RPMI-8226 = system: RPMI-8226
RXF 393 = system: RXF 393
SF-268 = system: SF-268
SF-539 = system: SF-539
SK-MEL-28 = system: SK-MEL-28
SK-MEL-2 = system: SK-MEL-2
SK-MEL-5 = system: SK-MEL-5
SK-OV-3 = system: SK-OV-3
SN12C = system: SN12C
SNB-19 = system: SNB-19
SNB-75 = system: SNB-75
SR = system: SR
SW-620 = system: SW-620
T47D = system: T47D
TK-10 = system: TK-10
U-251 = system: U-251
UACC-257 = system: UACC-257
UACC-62 = system: UACC-62
UO-31 = system: UO-31
CAKI-1 = system: CAKI-1
CCRF-CEM = system: CCRF-CEM
EKVX = system: EKVX
HL-60 = system: HL-60
NCI-H522 = system: NCI-H522
SF-295 = system: SF-295

CC(SC(=S)N(C)C)C(=O)Nc1nnc(-c2ccc(Cl)cc2)o1 (configuration not stated)
GI50 (786-0): 20.8 µM (inactive) | GI50 (A498): 42.4 µM (inactive) | GI50 (A549): 33.3 µM (inactive) | GI50 (ACHN): 36 µM (inactive) | GI50 (BT-549): 89.1 µM (inactive) | GI50 (COLO 205): 33.3 µM (inactive) | GI50 (DU-145): 59.8 µM (inactive) | GI50 (HCC 2998): > 100 µM (inactive) | GI50 (HCT-116): 28.8 µM (inactive) | GI50 (HCT-15): 17.7 µM | GI50 (HOP-62): 51.2 µM (inactive) | GI50 (HOP-92): > 100 µM (inactive) | GI50 (HT-29): 24 µM (inactive) | GI50 (Hs-578T): > 100 µM (inactive) | GI50 (IGROV-1): 30.2 µM (inactive) | GI50 (K562): 14.3 µM (inactive) | GI50 (LOX IMVI): 16.9 µM (inactive) | GI50 (M14): 37.1 µM (inactive) | GI50 (MCF7): 26.7 µM (inactive) | GI50 (MDA-MB-231): 44.6 µM (inactive) | GI50 (MDA-MB-435): 35.2 µM (inactive) | GI50 (MOLT-4): 3.24 µM (inactive) | GI50 (Malme-3M): 90.2 µM (inactive) | GI50 (NCI-H226): 40.6 µM (inactive) | GI50 (NCI-H23): 54.2 µM (inactive) | GI50 (NCI-H460): 35.8 µM (inactive) | GI50 (NCI/ADR-RES): 14.6 µM (inactive) | GI50 (OVCAR-3): 19.6 µM (inactive) | GI50 (OVCAR-4): 44.7 µM (inactive) | GI50 (OVCAR-5): 56.4 µM (inactive) | GI50 (OVCAR-8): 49.7 µM (inactive) | GI50 (PC-3): 35.9 µM (inactive) | GI50 (RPMI-8226): 22.6 µM (inactive) | GI50 (RXF 393): 80.7 µM (inactive) | GI50 (SF-268): 29 µM (inactive) | GI50 (SF-539): 59.7 µM (inactive) | GI50 (SK-MEL-28): 53 µM (inactive) | GI50 (SK-MEL-2): 30.8 µM (inactive) | GI50 (SK-MEL-5): 31.6 µM (inactive) | GI50 (SK-OV-3): > 100 µM (inactive) | GI50 (SN12C): 33.7 µM (inactive) | GI50 (SNB-19): 35.3 µM (inactive) | GI50 (SNB-75): 41.5 µM (inactive) | GI50 (SR): 4.33 µM (inactive) | GI50 (SW-620): 34.7 µM (inactive) | GI50 (T47D): 44.8 µM (inactive) | GI50 (TK-10): 80.2 µM (inactive) | GI50 (U-251): 31 µM (inactive) | GI50 (UACC-257): 65.9 µM (inactive) | GI50 (UACC-62): 45.8 µM (inactive) | GI50 (UO-31): 20 µM (inactive)

Cc1c(-c2c(C)c3ccccc3n2S(=O)(=O)c2ccccc2)n(S(=O)(=O)c2ccccc2)c2ccccc12
GI50 (786-0): 0.019 µM (active) | GI50 (A498): > 100 µM (inactive) | GI50 (BT-549): > 100 µM (inactive) | GI50 (CAKI-1): 0.336 µM (active) | GI50 (CCRF-CEM): > 100 µM (inactive) | GI50 (EKVX): > 100 µM (inactive) | GI50 (HL-60): > 100 µM (inactive) | GI50 (HOP-92): > 100 µM (inactive) | GI50 (Hs-578T): > 100 µM (inactive) | GI50 (K562): > 100 µM (inactive) | GI50 (M14): > 22.2 µM (inactive) | GI50 (MDA-MB-231): > 56.4 µM (inactive) | GI50 (MDA-MB-435): > 100 µM (inactive) | GI50 (MOLT-4): > 100 µM (inactive) | GI50 (Malme-3M): 0.0299 µM (active) | GI50 (NCI-H226): > 39.9 µM (inactive) | GI50 (NCI-H23): > 72.8 µM (inactive) | GI50 (NCI-H460): 0.0407 µM (active) | GI50 (NCI-H522): > 100 µM (inactive) | GI50 (NCI/ADR-RES): > 80 µM (inactive) | GI50 (OVCAR-3): 5.62 µM (inactive) | GI50 (OVCAR-5): > 51.6 µM (inactive) | GI50 (PC-3): > 37.1 µM (inactive) | GI50 (RPMI-8226): > 100 µM (inactive) | GI50 (SF-268): > 100 µM (inactive) | GI50 (SF-295): > 100 µM (inactive) | GI50 (SF-539): 0.0371 µM (active) | GI50 (SK-MEL-28): > 100 µM (inactive) | GI50 (SK-MEL-2): > 37.5 µM (inactive) | GI50 (SK-OV-3): > 82.6 µM (inactive) | GI50 (SNB-19): > 93.5 µM (inactive) | GI50 (SNB-75): > 31.6 µM (inactive) | GI50 (TK-10): > 100 µM (inactive) | GI50 (UACC-257): > 100 µM (inactive) | GI50 (UACC-62): > 29.1 µM (inactive) | GI50 (UO-31): > 100 µM (inactive)
